# Source: patent US9624233B2, “Compounds for treating pruritic conditions” (priority 2015, dated 2017)
# Key:
# Conditions in all cases: 2.5E−05M
# [1] = biological target: N neuronal α4β2 (h) (Homo sapiens, UniProt P17787+P43681); test: Abuse liability binding screen, N neuronal α4β2 (h) (agonist radioligand)
# Experimental: (§1) Compound binding was calculated as a % inhibition of the binding of a radioactively labeled ligand specific for each target.
# [2] = biological target: β1 (h) (Homo sapiens, UniProt P08588); test: Abuse liability binding screen, β1 (h) (agonist radioligand)
# Experimental: (§2) […]. The abuse liability screen included 44 targets (receptors, transporters, on gated-channel systems) related to the dopamine, norepinephrine, serotonin, gamma-aminobutyric acid (GABA), acetylcholine, N-methyl-D-aspartate (NMDA) cannabinoid and opioid neurotransmitter systems as recommended in FDA Draft guidance on Assessment of Abuse Potential of Drugs, January 2010.
# as §1
# (§3) Results showing an inhibition or stimulation higher than 50% are considered to represent significant effects of the test compounds.
# [3] = biological target: B2 (h) (Homo sapiens, UniProt P07550); test: Abuse liability binding screen, B2 (h) (agonist radioligand)
# Experimental: as §2, §1, §3
# [4] = biological target: T1, M4 (h) (Homo sapiens, UniProt P08173); test: Abuse liability binding screen, M4 (h) (antagonist radioligand)
# T1 sequence (P08173 1-479): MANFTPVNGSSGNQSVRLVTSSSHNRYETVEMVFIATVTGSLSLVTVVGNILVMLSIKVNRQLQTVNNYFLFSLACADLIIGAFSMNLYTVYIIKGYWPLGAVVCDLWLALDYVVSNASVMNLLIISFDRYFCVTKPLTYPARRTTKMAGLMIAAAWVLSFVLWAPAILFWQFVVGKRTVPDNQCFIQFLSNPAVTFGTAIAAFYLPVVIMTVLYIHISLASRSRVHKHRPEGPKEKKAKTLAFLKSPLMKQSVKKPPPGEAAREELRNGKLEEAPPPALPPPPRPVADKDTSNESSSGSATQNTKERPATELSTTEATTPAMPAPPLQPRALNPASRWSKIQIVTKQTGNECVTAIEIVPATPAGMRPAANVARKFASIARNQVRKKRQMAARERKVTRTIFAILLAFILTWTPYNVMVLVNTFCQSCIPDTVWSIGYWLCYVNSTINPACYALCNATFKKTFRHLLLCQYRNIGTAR
# Experimental: as §2, §1, §3
# [5] = test system: BZD (central); test: Abuse liability binding screen, BZD (central) (agonist radioligand)
# Experimental: as §1
# [6] = biological target: T2, α2A (h) (Homo sapiens, UniProt P08913); test: Abuse liability binding screen, α2A (h) (antagonist radioligand)
# T2 sequence (P08913 1-465): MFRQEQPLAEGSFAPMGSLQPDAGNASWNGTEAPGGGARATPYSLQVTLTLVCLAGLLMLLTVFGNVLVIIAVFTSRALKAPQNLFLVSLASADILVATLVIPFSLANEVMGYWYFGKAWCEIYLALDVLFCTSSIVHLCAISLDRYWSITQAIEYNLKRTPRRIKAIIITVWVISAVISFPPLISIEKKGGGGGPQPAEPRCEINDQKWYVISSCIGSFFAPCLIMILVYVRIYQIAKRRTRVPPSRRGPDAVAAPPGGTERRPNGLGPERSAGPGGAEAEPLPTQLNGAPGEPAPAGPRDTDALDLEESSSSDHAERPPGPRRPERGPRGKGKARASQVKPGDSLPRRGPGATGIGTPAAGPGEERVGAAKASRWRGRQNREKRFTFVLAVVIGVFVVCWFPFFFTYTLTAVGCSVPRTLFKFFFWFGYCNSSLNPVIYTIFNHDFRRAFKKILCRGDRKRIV
# Experimental: as §2, §1, §3
# [7] = biological target: T3, α1A (h) (Homo sapiens, UniProt P35348); test: Abuse liability binding screen, α1A (h) (antagonist radioligand)
# T3 sequence (P35348 1-466): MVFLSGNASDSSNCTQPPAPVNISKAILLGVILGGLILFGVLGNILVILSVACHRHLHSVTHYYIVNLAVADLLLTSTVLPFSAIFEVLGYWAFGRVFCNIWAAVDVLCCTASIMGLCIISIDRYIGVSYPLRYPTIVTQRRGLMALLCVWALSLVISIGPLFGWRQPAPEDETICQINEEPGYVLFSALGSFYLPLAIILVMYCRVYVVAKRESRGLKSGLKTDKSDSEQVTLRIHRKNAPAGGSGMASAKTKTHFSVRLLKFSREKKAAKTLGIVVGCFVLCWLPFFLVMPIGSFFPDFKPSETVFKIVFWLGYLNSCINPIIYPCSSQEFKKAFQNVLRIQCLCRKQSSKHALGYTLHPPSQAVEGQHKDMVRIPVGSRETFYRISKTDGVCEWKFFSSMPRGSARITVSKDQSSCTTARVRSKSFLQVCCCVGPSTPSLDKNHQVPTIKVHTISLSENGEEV
# Experimental: as §2, §1, §3
# [8] = biological target: GABAA1 (h) (α1, β2, γ2) (Homo sapiens, UniProt P14867+P18507+P47870); test: Abuse liability binding screen, GABAA1 (h) (α1, β2, γ2) (antagonist radioligand)
# Experimental: as §2, §1, §3
# [9] = test system: Na^+ channel (site 2); test: Abuse liability binding screen, Na+ channel (site 2) (antagonist radioligand)
# Experimental: as §1
# [10] = biological target: D1 (h) (Homo sapiens, UniProt P21728); test: Abuse liability binding screen, D1 (h) (antagonist radioligand)
# Experimental: as §2, §1, §3
# Chain of GABAA1 (h) (α1, β2, γ2) (P14867 28-456): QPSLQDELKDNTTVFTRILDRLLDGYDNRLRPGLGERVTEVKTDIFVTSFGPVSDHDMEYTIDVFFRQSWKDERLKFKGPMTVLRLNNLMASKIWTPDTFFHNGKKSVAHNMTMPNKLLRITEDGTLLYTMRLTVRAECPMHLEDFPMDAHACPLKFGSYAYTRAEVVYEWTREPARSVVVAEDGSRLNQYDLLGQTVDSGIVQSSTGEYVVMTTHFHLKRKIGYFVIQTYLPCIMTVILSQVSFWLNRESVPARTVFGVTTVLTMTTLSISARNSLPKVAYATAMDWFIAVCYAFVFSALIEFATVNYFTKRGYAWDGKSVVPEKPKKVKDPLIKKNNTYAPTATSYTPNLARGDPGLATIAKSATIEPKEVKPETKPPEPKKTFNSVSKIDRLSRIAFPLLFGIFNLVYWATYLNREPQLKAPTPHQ
# Chain of GABAA1 (h) (α1, β2, γ2) (P47870 25-512 limits assumed): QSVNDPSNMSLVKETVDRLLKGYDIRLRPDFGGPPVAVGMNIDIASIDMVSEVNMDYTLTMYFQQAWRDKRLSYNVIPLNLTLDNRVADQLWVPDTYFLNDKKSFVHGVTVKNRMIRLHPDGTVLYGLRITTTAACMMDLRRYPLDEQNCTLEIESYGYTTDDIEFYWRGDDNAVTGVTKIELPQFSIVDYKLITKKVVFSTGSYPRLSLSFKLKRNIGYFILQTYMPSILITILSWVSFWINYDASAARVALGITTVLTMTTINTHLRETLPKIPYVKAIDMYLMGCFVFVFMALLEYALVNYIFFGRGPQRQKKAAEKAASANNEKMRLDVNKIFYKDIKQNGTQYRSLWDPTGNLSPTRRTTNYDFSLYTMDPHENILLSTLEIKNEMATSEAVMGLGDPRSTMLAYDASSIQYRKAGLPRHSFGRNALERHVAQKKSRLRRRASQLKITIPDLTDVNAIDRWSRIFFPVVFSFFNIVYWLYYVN
# Chain of GABAA1 (h) (α1, β2, γ2) (P18507 40-475): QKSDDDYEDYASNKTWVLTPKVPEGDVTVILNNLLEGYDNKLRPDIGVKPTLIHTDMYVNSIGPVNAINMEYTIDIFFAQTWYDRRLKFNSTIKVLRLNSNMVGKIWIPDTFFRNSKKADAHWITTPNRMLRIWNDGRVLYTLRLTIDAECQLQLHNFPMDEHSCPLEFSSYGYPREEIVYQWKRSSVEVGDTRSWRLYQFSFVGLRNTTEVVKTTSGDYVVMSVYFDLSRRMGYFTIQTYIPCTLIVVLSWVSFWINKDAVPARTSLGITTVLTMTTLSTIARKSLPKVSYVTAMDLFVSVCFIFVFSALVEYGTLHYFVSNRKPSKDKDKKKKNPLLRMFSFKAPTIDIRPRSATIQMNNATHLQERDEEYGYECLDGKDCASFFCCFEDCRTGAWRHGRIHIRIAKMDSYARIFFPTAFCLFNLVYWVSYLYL
# Chain of D1 (h) (P21728 whole entry): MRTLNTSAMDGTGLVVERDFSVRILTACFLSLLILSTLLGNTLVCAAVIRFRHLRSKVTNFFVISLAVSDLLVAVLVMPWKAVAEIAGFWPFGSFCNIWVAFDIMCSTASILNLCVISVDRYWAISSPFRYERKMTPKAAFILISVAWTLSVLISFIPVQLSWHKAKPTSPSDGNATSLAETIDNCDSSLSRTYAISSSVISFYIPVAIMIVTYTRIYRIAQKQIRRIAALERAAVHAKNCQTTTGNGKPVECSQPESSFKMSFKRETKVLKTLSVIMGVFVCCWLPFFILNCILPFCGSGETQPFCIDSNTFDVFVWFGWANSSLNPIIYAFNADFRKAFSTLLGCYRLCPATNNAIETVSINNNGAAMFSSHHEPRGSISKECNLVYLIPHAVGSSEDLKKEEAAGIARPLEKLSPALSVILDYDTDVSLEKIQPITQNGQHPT
# Chain of B2 (h) (P07550 whole entry): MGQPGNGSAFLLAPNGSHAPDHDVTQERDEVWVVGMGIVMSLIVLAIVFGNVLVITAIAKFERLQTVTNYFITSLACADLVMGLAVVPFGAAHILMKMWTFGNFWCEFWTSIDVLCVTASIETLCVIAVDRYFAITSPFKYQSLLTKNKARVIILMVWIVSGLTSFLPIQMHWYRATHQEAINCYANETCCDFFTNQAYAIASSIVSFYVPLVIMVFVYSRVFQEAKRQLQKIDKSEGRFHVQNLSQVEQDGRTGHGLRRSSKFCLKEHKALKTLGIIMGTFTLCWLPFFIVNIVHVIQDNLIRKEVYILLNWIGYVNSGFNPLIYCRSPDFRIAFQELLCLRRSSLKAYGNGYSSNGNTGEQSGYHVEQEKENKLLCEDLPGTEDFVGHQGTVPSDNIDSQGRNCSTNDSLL
# Chain of β1 (h) (P08588 whole entry): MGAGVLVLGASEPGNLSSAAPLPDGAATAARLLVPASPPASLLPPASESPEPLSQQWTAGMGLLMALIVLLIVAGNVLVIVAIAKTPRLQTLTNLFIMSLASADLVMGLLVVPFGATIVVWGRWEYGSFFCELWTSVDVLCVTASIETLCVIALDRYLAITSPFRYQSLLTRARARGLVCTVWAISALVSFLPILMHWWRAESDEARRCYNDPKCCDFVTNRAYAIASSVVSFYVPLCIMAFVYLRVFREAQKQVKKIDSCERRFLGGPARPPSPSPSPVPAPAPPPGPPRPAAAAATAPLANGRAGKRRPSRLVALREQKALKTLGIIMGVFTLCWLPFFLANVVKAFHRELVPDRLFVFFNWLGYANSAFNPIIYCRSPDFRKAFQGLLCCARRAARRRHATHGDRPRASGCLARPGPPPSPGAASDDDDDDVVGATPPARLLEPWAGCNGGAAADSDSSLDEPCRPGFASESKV
# Chain of N neuronal α4β2 (h) (P43681 29-627 limits assumed): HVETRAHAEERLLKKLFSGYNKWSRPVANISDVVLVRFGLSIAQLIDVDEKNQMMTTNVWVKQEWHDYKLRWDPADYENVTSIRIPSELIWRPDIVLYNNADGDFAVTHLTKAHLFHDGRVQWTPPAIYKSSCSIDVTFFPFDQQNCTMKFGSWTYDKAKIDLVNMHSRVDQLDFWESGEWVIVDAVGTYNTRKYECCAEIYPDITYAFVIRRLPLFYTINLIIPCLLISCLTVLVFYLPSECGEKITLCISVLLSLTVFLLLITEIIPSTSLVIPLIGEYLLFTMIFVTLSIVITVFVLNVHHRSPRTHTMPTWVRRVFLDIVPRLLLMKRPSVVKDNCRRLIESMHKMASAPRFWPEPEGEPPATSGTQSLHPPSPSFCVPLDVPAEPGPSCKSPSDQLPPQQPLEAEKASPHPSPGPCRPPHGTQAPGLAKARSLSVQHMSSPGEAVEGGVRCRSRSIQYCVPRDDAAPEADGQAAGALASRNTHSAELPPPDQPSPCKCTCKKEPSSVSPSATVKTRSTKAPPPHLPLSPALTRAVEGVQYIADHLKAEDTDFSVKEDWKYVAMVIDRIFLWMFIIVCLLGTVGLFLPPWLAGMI
# Chain of N neuronal α4β2 (h) (P17787 26-502): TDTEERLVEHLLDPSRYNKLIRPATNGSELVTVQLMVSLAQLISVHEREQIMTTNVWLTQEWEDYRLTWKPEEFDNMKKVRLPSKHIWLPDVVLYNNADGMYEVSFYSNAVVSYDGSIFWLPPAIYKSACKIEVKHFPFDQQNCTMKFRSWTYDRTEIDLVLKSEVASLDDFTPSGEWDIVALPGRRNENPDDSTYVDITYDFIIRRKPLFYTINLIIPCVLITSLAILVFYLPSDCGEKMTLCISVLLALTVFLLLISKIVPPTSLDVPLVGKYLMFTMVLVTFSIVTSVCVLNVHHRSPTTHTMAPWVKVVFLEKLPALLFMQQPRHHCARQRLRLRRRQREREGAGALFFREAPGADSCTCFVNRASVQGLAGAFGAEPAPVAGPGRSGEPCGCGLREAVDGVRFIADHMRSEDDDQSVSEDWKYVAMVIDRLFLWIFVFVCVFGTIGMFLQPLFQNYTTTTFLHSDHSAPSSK
structure (smiles),measurement,setting,value
"O=C(O)[C@H]1O[C@@H](Oc2ccc3c4c2O[C@H]2[C@@H](O)CC[C@@]5(O)[C@@H](C3)N(CC3CCC3)CC[C@]425)[C@H](O)[C@@H](O)[C@@H]1O [Compound M5, nalbuphine-3-beta-D-glucuronid]",% Inhibition of Control Specific Binding 1st,[1],0.8%
same,% Inhibition of Control Specific Binding 2nd,[1],−2.0%
same,% Inhibition of Control Specific Binding Mean,[1],−0.6%
same,% Inhibition of Control Specific Binding 1st,[2],−5.4%
same,% Inhibition of Control Specific Binding 2nd,[2],4.8%
same,% Inhibition of Control Specific Binding Mean,[2],−0.3%
same,% Inhibition of Control Specific Binding 1st,[3],−4.6%
same,% Inhibition of Control Specific Binding 2nd,[3],15.3%
same,% Inhibition of Control Specific Binding Mean,[3],5.4%
same,% Inhibition of Control Specific Binding 1st,[4],−7.9%
same,% Inhibition of Control Specific Binding 2nd,[4],16.6%
same,% Inhibition of Control Specific Binding Mean,[4],4.4%
same,% Inhibition of Control Specific Binding 1st,[5],−13.2%
same,% Inhibition of Control Specific Binding Mean,[5],−5.6%
same,% Inhibition of Control Specific Binding 1st,[6],−0.5%
same,% Inhibition of Control Specific Binding 2nd,[6],−5.7%
same,% Inhibition of Control Specific Binding Mean,[6],−3.1%
same,% Inhibition of Control Specific Binding 1st,[7],−0.1%
same,% Inhibition of Control Specific Binding 2nd,[7],3.4%
same,% Inhibition of Control Specific Binding Mean,[7],1.6%
same,% Inhibition of Control Specific Binding 1st,[8],−1.4%
same,% Inhibition of Control Specific Binding 2nd,[8],−0.8%
same,% Inhibition of Control Specific Binding Mean,[8],−1.1%
same,% Inhibition of Control Specific Binding 1st,[9],−2.1%
same,% Inhibition of Control Specific Binding 2nd,[9],24.8%
same,% Inhibition of Control Specific Binding Mean,[9],11.4%
same,% Inhibition of Control Specific Binding 1st,[10],−12.1%
same,% Inhibition of Control Specific Binding 2nd,[10],2.2%
same,% Inhibition of Control Specific Binding Mean,[10],−5.0%
